Assay results as given in PubChem BioAssay (NCI).
Where “and” joins values, the source holds several entries; their conditions need not be identical. Identical values can stand only once.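 A five-concentration, 48-hour dose response in 96-well plates underlies each endpoint, interpolated linearly between surrounding concentrations. GI50 is the concentration that inhibits growth by half. TGI denotes the concentration required for complete inhibition of growth.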

Legend:
Test in all cases: DTP human tumour cell line panel, 48 h
[1] = test system: SN12C renal
[2] = test system: TK-10 renal
[3] = test system: NCI-H23 lung
[4] = test system: OVCAR-4 ovarian
[5] = test system: EKVX NSCLC
[6] = test system: U251 CNS
[7] = test system: NCI/ADR-RES ovarian
[8] = test system: HL-60(TB) leukemia
[9] = test system: OVCAR-3 ovarian
[10] = test system: NCI-H522 lung

Row | SMILES | GI50 [1] | TGI [1] | GI50 [2] | TGI [2] | GI50 [3] | TGI [3] | GI50 [4] | TGI [4] | GI50 [5] | TGI [5] | GI50 [6] | TGI [6] | GI50 [7] | TGI [7] | GI50 [8] | TGI [8] | GI50 [9] | TGI [9] | GI50 [10] | TGI [10]
1 | CN1N=Nc2c(C(F)(F)F)nn(-c3ccccc3)c2N(C)C1=O | > 100 µM | > 100 µM | > 100 µM | > 100 µM | > 100 µM | > 100 µM | > 100 µM | > 100 µM | > 100 µM | > 100 µM | > 100 µM | > 100 µM | > 100 µM | > 100 µM | > 32 µM | > 52.7 µM | > 100 µM | > 100 µM | > 100 µM | > 100 µM
2 | C[C@]12CC[C@H]3[C@@H](CCC4=C[C@@H](OC5OCC(OC6OC(CO)C(O)C(O)C6O)C(O)C5O)CC[C@@]43C=O)[C@@]1(O)CCC2C1=CC(=O)OC1 (some centres undefined) |  | 2.01 µM |  | 8.19 µM |  | 1.08 µM |  | 1.07 µM |  | 1.64 µM |  | 8.84 µM |  | 3.28 µM |  | 0.646 µM |  | 1.43 µM |  | 2.88 µM
3 | CS(=O)(=O)Nc1cc(-c2ccc3ncnc(Nc4cccc(Cl)c4F)c3c2)cnc1Cl | 3.89 µM | 41.2 µM | 1.77 µM | 8.73 µM | 2.33 µM | 10.1 µM | 5.82 µM | > 100 µM | 1.44 µM | 6.27 µM | 2.45 µM | 14.9 µM | 7.02 µM | 31.8 µM | 3.19 µM | 40.2 µM | 1.84 µM | 7.52 µM | 3 µM | 17 µM
4 | CC(=O)O[C@H](C[C@H](C(C)C)N(C)C(=O)[C@@H](NC(=O)[C@H]1CCCCN1C)C(C)(C)C)c1nc(C(=O)N[C@@H](Cc2ccccc2)C[C@H](C)C(=O)O)cs1 | < 0.0025 µM | > 25 µM | 0.00962 µM | > 25 µM | < 0.0025 µM | > 25 µM | 0.00525 µM | > 25 µM | 0.00462 µM | > 25 µM | < 0.0025 µM | > 25 µM | 0.00524 µM | > 25 µM | < 0.0025 µM | < 0.0025 µM | < 0.0025 µM | 0.00448 µM | < 0.0025 µM | 0.00847 µM
5 | O=[N+]([O-])c1ccc(NC(=S)N/N=C(\c2ccccc2)c2ccccn2)cc1 |  | 2.83 µM |  | 2.51 µM | 1.71 µM | 3.53 µM and 13.3 µM |  | 3.42 µM and 3.51 µM | 1.87 µM | 3.45 µM and 2.19 µM |  | 3 µM and 2.68 µM |  | 5.12 µM | 1.59 µM | 4.32 µM and > 20.4 µM |  | 1.36 µM and 2.76 µM | 1.97 µM | 4.2 µM and 1.48 µM
6 | CC(C)(O)CCC(O)C(C)(O)C1CCC2(O)C3=CC(=O)C4(O)CC(O)C(O)CC4(C)C3CCC12C (centres undefined) (tested in a mixture with another compound) |  | > 100 µM |  | > 100 µM |  | > 100 µM |  | > 100 µM |  | > 100 µM |  | > 100 µM |  | > 100 µM |  | > 100 µM |  | > 100 µM |  | > 100 µM
7 | Cn1c(O)c(N=NC(N)=S)c2ccccc21 | > 100 µM | > 100 µM | > 100 µM | > 100 µM | > 100 µM | > 100 µM | 82.1 µM | > 100 µM | 2.04 µM | > 100 µM | 46.7 µM | > 100 µM | 47.4 µM | > 100 µM | 37.9 µM | > 100 µM | 33.4 µM | > 100 µM | 43.9 µM | > 100 µM
8 | O=C(Nc1ccc(-c2ccnc(Nc3ccc(N4CCOCC4)cc3)n2)cc1)C1CCCN1 (centres undefined) | 4.47 µM | 44 µM | 9.35 µM | 33.6 µM | 12.1 µM | 32.4 µM | 12.2 µM | 43.1 µM | 12.5 µM | 33.7 µM | 3.05 µM | 21.6 µM | 9.49 µM | 44.5 µM | 4.5 µM | 25.5 µM | 9.43 µM | 27.3 µM | 6.23 µM | 21.1 µM
